Measurements reported in US20060165717A1 (priority 2005, published 2006).

Tested on: Balb/c mice
Experiment: Immunization of mice with detoxified TAT vaccine compositions; TAT-specific IgG by ELISA
Type: in vivo
Settings: 2 subcutaneous injections D0, D21, 1 μg TAT antigen
Experimental: Vaccine compositions comprising, as antigen, a detoxified TAT III B protein are prepared. The TAT protein was detoxified by means of an alkylation reaction in an alkaline medium using iodoacetamide under the following conditions: number of micromoles of iodoacetamide=200×number of micromoles of TAT+number of micromoles of DTT. This detoxified protein and the method for preparing it are described in detail in application WO 99/33346, where it is identified under the term “carboxymethylated TAT”.
Immunizing doses having the following composition are the obtained:
Adult Balb/c mice and 1-week-old “newborn” Balb/c mice are provided and are divided up into groups of 6 to 8 (groups of young mice) or of 5 to 6 (groups of adult mice). Experiments are carried out with 2 subcutaneous injections of the same vaccine formulation at D0 and at D21. Blood samples are taken after the booster injection. The TAT-specific immunoglobulins are assayed by the ELISA technique. A total of 10 to 40 mice per formulation was tested in several independent experiments: for the DC-Chol: 27 adults, 38 newborns; for the aluminum oxyhydroxide: 18 adults, 22 newborns; for the emulsion: 10 adults and 16 newborns; and in saline solution: 10 adults and 15 newborns. […]

3β-[N-(N′,N′-dimethyl-aminoethane)carbamoyl]cholesterol [DCchol]
adjuvant effect on TAT-specific total IgG response (FIG. 1), in words (adult Balb/c mice): capable of increasing the immune response
adjuvant effect on TAT-specific total IgG response (FIG. 1), in words (newborn (1-week-old) Balb/c mice): capable of increasing the immune response
